Measurements published in PMC3362798 (Bioorganic & medicinal chemistry letters, 2012).
Like-named read-outs stand apart in the source and are kept apart here. One block for each compound: values may come before it.

Legend:
[1] = tested on: NPY Y1 and 38 off-target receptors, including GPCRs, transporters and ion-channels; settings: cited from earlier work
[2] = cited from earlier work
[3] = tested on: NPY Y2; settings: NPY Y2 antagonist; cited from earlier work
[4] = tested on: rats; settings: intracerebroventricular (icv) administration; cited from earlier work
[5] = tested on: mice; settings: intracerebroventricular (icv) administration; cited from earlier work
[6] = biological target: T1, NPY Y2 receptor (Homo sapiens, UniProt P49146); assay: cAMP biosensor assay, NPY Y2 receptor antagonism; type: cell-based; settings: for fold increase in potency compared to SF-11: more potent than SF-11
T1 sequence (P49146 1-381): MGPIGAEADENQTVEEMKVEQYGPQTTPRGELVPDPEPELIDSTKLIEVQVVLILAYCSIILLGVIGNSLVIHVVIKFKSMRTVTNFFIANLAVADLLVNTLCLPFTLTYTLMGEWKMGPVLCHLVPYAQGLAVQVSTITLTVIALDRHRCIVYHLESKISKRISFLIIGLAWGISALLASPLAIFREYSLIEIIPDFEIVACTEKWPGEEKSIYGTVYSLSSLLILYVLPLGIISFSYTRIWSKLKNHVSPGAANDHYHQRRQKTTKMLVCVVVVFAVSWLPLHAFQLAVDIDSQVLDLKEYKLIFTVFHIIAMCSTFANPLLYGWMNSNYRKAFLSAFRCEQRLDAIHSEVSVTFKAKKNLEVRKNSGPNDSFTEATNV

Compound: Cc1ccc(C)c(NS(=O)(=O)c2cc(C(=O)Nc3ccccc3-c3ccccc3)ccc2C)c1 [SF-21]
selectivity against NPY Y1 and 38 off-target receptors [1]: selective
brain penetration ([2]; HTS hit chemotypes): brain-penetrant

Compound: N=C(N)NCCC[C@H](NC(=O)CC1(CC(=O)N2CCN(C3c4ccccc4NC(=O)c4ccccc43)CC2)CCCC1)C(=O)NCCn1c(=O)n(-c2ccccc2)n(-c2ccccc2)c1=O (stereo partly shown) [BIIE0246]
IC50 [3]: 3.3 nM
ethanol consumption [4]: decreased ethanol consumption
antidepressant-like effects [5]: induced antidepressant-like effects
brain penetration ([2]; BIIE0246): poor brain penetration

NPY Y2 antagonist activity (in words) [6]: complete loss of activity
Compound: CCOc1ccc(NC(=S)N2CCC(C(O)(c3ccccc3)C3CCCCC3)CC2)cc1 (stereo not shown) [Compound 38]

NPY Y2 antagonist activity (in words) [6]: inactive
Compound: CN(C)S(=O)(=O)c1ccc(NC(=S)N2CCN(C3c4ccccc4CCc4ccccc43)CC2)cc1 [Compound 45]

Compound: Cc1ccc(S(=O)(=O)C(c2ccccc2)c2c(C)noc2C)cc1 (stereo not shown) [SF-41]
selectivity against NPY Y1 and 38 off-target receptors [1]: selective
brain penetration ([2]; HTS hit chemotypes): brain-penetrant

NPY Y2 antagonist activity (in words) [6]: complete loss of activity
Compound: OC(c1ccccc1)(c1ccccc1)C1CCN(C(=S)Nc2ccc(C(F)(F)F)cc2Cl)CC1 [Compound 29]

Compound: CCN(CC)C(=O)c1ccc(NC(=S)N2CCC(C(O)(c3ccccc3)c3ccccc3)CC2)cc1 [Compound 15]
fold more potent than N,N-dimethylamide analogue 14 ([6]; compared with 14): 4 fold

NPY Y2 antagonist activity (in words) [6]: no activity
Compound: CCN(CC)S(=O)(=O)c1cccc(OC(=O)N2CCC(C(O)(c3ccccc3)c3ccccc3)CC2)c1 [Compound 65]

NPY Y2 antagonist activity (in words) [6]: partial antagonism
Compound: CCOC(=O)c1cccc(NC(=S)N2CCC(C(O)(c3ccccc3)c3ccccc3)CC2)c1 [Compound 22]

NPY Y2 antagonist activity (in words) [6]: retained the activity
Compound: CCOc1ccc(NC(=S)N2CCN(C(c3ccccc3)c3ccccc3)CC2)cc1 [Compound 36]

NPY Y2 antagonist activity (in words) [6]: complete loss of activity
Compound: CCOc1ccc(NC(=S)N2CCC(C(O)(c3ccccc3)c3ccccc3)CC2)c(C)c1 [Compound 27]

fold less potent than SF-11 ([6]; less potent than SF-11): ~7 fold
Compound: CCOc1ccc(NC(=S)N2CCC(C(O)(c3ccccc3)c3ccccc3)CC2)c(F)c1 [Compound 30]

fold less potent than N,N-diethyl sulfonamide analogue 54 ([6]; compared with 54): 18 fold
Compound: CCN(CC)C(=O)c1ccc(OC(=O)N2CCC(C(O)(c3ccccc3)c3ccccc3)CC2)cc1 [Compound 60]

Compound: CCOc1ccc(NC(=S)N2CCC(C(O)(c3ccccc3)c3ccccc3)CC2)cc1 [SF-11, N-(4-ethoxyphenyl)-4-[hydroxy(diphenyl)methyl]piperidine-1-carbothioamide]
selectivity against NPY Y1 and 38 off-target receptors [1]: selective
brain penetration ([2]; HTS hit chemotypes): brain-penetrant

NPY Y2 antagonist activity (in words) [6]: completely lost the activity
Compound: CC(=O)Nc1ccc(OC(=O)N2CCC(C(O)(c3ccccc3)c3ccccc3)CC2)cc1 [Compound 61]

NPY Y2 antagonist activity (in words) [6]: no activity
Compound: COC(c1ccccc1)(c1ccccc1)C1CCN(C(=S)Nc2ccc(S(=O)(=O)N(C)C)cc2)CC1 [Compound 35]

NPY Y2 antagonist activity (in words) [6]: completely lost the activity
Compound: CCC(=O)Nc1ccc(OC(=O)N2CCC(C(O)(c3ccccc3)c3ccccc3)CC2)cc1 [Compound 62]

fold increase in potency compared to SF-11 [6]: ~3 fold
Compound: CCN(CC)c1ccc(NC(=S)N2CCC(C(O)(c3ccccc3)c3ccccc3)CC2)cc1 [Compound 8]

Compound: COc1cccc(-c2nc(-c3ccc(NC(=O)Cc4ccccc4OC)cc3)no2)c1 [SF-31]
selectivity against NPY Y1 and 38 off-target receptors [1]: selective
brain penetration ([2]; HTS hit chemotypes): brain-penetrant

fold increase in potency compared to SF-11 [6]: 10 fold
Compound: CN(C)S(=O)(=O)c1ccc(NC(=S)N2CCC(C(O)(c3ccccc3)c3ccccc3)CC2)cc1 [Compound 16]

NPY Y2 antagonist activity (in words) [6]: complete loss of activity
Compound: CCOc1ccc(NC(=S)N2CCC(C(O)(c3ccccc3)c3ccccc3)CC2)c(C(F)(F)F)c1 [Compound 28]

NPY Y2 antagonist activity (in words) [6]: no activity
Compound: CCN(CC)C(=O)c1cccc(OC(=O)N2CCC(C(O)(c3ccccc3)c3ccccc3)CC2)c1 [Compound 64]

NPY Y2 antagonist activity (in words) [6]: retained the antagonist activity
Compound: CS(=O)(=O)Nc1ccc(OC(=O)N2CCC(C(O)(c3ccccc3)c3ccccc3)CC2)cc1 [Compound 63]

NPY Y2 antagonist activity (in words) [6]: complete loss of activity
Compound: OC(c1ccccc1)(c1ccccc1)C1CCN(C(=S)Nc2ccccc2)CC1 [Compound 1]
